Test results published in ChEMBL document CHEMBL3045391, “Synthesis and biological evaluation of 5,7-diaryl-4,4-dimethyl-4,5,6,7-tetrahydropyridino[3,4-d]-1,2,3-thiadiazoles” (2007).
Active and inactive are the calls of the source. The calls are words filed in the database; no cut-off is given here.

Assays:
[1] = system: Klebsiella pneumoniae; assay: Antibacterial activity against Klebsiella pneumoniae at 5 ug/disk after 24 hr by disk diffusion method; conditions: read-out: IZ
[2] = system: Pseudomonas; assay: Antibacterial activity against Pseudomonas at 5 ug/disk after 24 hr by disk diffusion method; assay type: functional; conditions: read-out: IZ
[3] = system: Salmonella typhi; assay: Antibacterial activity against Salmonella enterica subsp. enterica serovar Typhi at 5 ug/disk after 24 hr by disk diffusion method; assay type: functional; conditions: read-out: IZ
[4] = system: Staphylococcus aureus; assay: Antibacterial activity against Staphylococcus aureus at 5 ug/disc after 24 hr by disk diffusion method; conditions: read-out: IZ
[5] = system: Streptococcus; assay: Antibacterial activity against beta-hemolytic Streptococcus at 5 ug/disk after 24 hr by disk diffusion method; assay type: functional; conditions: read-out: IZ
[6] = system: Shigella flexneri; assay: Antibacterial activity against Shigella flexneri at 5 ug/disc after 24 hr by disk diffusion method; assay type: functional; conditions: read-out: IZ
[7] = system: Vibrio cholerae; assay: Antibacterial activity against Vibrio cholerae at 5 ug/disc after 24 hr by disk diffusion method; assay type: functional; conditions: read-out: IZ
[8] = system: Rhizopus; assay: Antifungal activity against Rhizopus at 100 ppm after 72 to 96 hr by disk diffusion method; assay type: functional; conditions: read-out: IZ
[9] = system: Mucor; assay: Antifungal activity against Mucor at 100 ppm after 72 to 96 hr by disk diffusion method; assay type: functional
[10] = system: Pseudomonas; assay: Antibacterial activity against Pseudomonas at 500 ppm after 24 hr by disk diffusion method; assay type: functional; conditions: read-out: IZ
[11] = system: Streptococcus; assay: Antibacterial activity against beta-hemolytic Streptococcus at 100 ppm after 24 hr by disk diffusion method; assay type: functional, organism-based
[12] = system: Klebsiella pneumoniae; assay: Antibacterial activity against Klebsiella pneumoniae at 100 ppm after 24 hr by disk diffusion method; assay type: functional; conditions: read-out: IZ
[13] = system: Staphylococcus aureus; assay: Antibacterial activity against Staphylococcus aureus at 500 ppm after 24 hr by disk diffusion method; assay type: functional; conditions: read-out: IZ
[14] = system: Shigella flexneri; assay: Antibacterial activity against Shigella flexneri at 200 ppm after 24 hr by disk diffusion method; assay type: functional; conditions: read-out: IZ
[15] = system: Pseudomonas; assay: Antibacterial activity against Pseudomonas at 200 ppm after 24 hr by disk diffusion method; assay type: functional; conditions: read-out: IZ
[16] = system: Vibrio cholerae; assay: Antibacterial activity against Vibrio cholerae at 500 ppm after 24 hr by disk diffusion method; assay type: functional; conditions: read-out: IZ
[17] = system: Streptococcus; assay: Antibacterial activity against beta-hemolytic Streptococcus at 500 ppm after 24 hr by disk diffusion method; assay type: functional; conditions: read-out: IZ
[18] = system: Aspergillus flavus; assay: Antifungal activity against Aspergillus flavus at 200 ppm after 72 to 96 hr by disk diffusion method; assay type: functional; conditions: read-out: IZ
[19] = system: Shigella flexneri; assay: Antibacterial activity against Shigella flexneri at 100 ppm after 24 hr by disk diffusion method; assay type: functional
[20] = system: Streptococcus; assay: Antibacterial activity against beta-hemolytic Streptococcus at 200 ppm after 24 hr by disk diffusion method; assay type: functional; conditions: read-out: IZ
[21] = system: Aspergillus flavus; assay: Antifungal activity against Aspergillus flavus at 500 ppm after 72 to 96 hr by disk diffusion method; assay type: functional; conditions: read-out: IZ
[22] = system: Klebsiella pneumoniae; assay: Antibacterial activity against Klebsiella pneumoniae at 200 ppm after 24 hr by disk diffusion method; assay type: functional; conditions: read-out: IZ
[23] = system: Vibrio cholerae; assay: Antibacterial activity against Vibrio cholerae at 100 ppm after 24 hr by disk diffusion method; assay type: functional; conditions: read-out: IZ
[24] = system: Shigella flexneri; assay: Antibacterial activity against Shigella flexneri at 500 ppm after 24 hr by disk diffusion method; assay type: functional; conditions: read-out: IZ
[25] = system: Staphylococcus aureus; assay: Antibacterial activity against Staphylococcus aureus at 200 ppm after 24 hr by disk diffusion method; assay type: functional; conditions: read-out: IZ
[26] = system: Escherichia coli; assay: Antibacterial activity against Escherichia coli at 200 ppm after 24 hr by disk diffusion method; assay type: functional; conditions: read-out: IZ
[27] = system: Staphylococcus aureus; assay: Antibacterial activity against Staphylococcus aureus at 100 ppm after 24 hr by disk diffusion method; assay type: functional
[28] = system: Rhizopus; assay: Antifungal activity against Rhizopus at 200 ppm after 72 to 96 hr by disk diffusion method; assay type: functional; conditions: read-out: IZ
[29] = system: Salmonella typhi; assay: Antibacterial activity against Salmonella enterica subsp. enterica serovar Typhi at 500 ppm after 24 hr by disk diffusion method; assay type: functional; conditions: read-out: IZ
[30] = system: Vibrio cholerae; assay: Antibacterial activity against Vibrio cholerae at 200 ppm after 24 hr by disk diffusion method; assay type: functional; conditions: read-out: IZ
[31] = system: Mucor; assay: Antifungal activity against Mucor at 500 ppm after 72 to 96 hr by disk diffusion method; assay type: functional; conditions: read-out: IZ
[32] = system: Aspergillus flavus; assay: Antifungal activity against Aspergillus flavus at 100 ppm after 72 to 96 hr by disk diffusion method; assay type: functional; conditions: read-out: IZ
[33] = system: Salmonella typhi; assay: Antibacterial activity against Salmonella enterica subsp. enterica serovar Typhi at 200 ppm after 24 hr by disk diffusion method; assay type: functional; conditions: read-out: IZ
[34] = system: Nannizzia gypsea; assay: Antifungal activity against Microsporum gypseum at 200 ppm after 72 to 96 hr by disk diffusion method; assay type: functional; conditions: read-out: IZ
[35] = system: Escherichia coli; assay: Antibacterial activity against Escherichia coli at 500 ppm after 24 hr by disk diffusion method; assay type: functional; conditions: read-out: IZ
[36] = system: Mucor; assay: Antifungal activity against Mucor at 200 ppm after 72 to 96 hr by disk diffusion method; assay type: functional; conditions: read-out: IZ
[37] = system: Nannizzia gypsea; assay: Antifungal activity against Microsporum gypseum at 500 ppm after 72 to 96 hr by disk diffusion method; assay type: functional; conditions: read-out: IZ
[38] = system: Salmonella typhi; assay: Antibacterial activity against Salmonella enterica subsp. enterica serovar Typhi at 100 ppm after 24 hr by disk diffusion method; assay type: functional; conditions: read-out: IZ
[39] = system: Nannizzia gypsea; assay: Antifungal activity against Microsporum gypseum at 100 ppm after 72 to 96 hr by disk diffusion method; assay type: functional; conditions: read-out: IZ
[40] = system: Klebsiella pneumoniae; assay: Antibacterial activity against Klebsiella pneumoniae at 500 ppm after 24 hr by disk diffusion method; assay type: functional; conditions: read-out: IZ
[41] = system: Escherichia coli; assay: Antibacterial activity against Escherichia coli at 100 ppm after 24 hr by disk diffusion method; assay type: functional, organism-based
[42] = system: Pseudomonas; assay: Antibacterial activity against Pseudomonas at 100 ppm after 24 hr by disk diffusion method; assay type: functional; conditions: read-out: IZ
[43] = system: Rhizopus; assay: Antifungal activity against Rhizopus at 500 ppm after 72 to 96 hr by disk diffusion method; assay type: functional; conditions: read-out: IZ

O=C(O)c1cn(C2CC2)c2cc(N3CCNCC3)c(F)cc2c1=O [CIPROFLOXACIN]
zone of inhibition at 5 µg/disc [1]: 26 mm | zone of inhibition at 5 µg/disc [2]: 23 mm | zone of inhibition at 5 µg/disc [3]: 22 mm | zone of inhibition at 5 µg/disc [4]: 25 mm | zone of inhibition at 5 µg/disc [5]: 28 mm | zone of inhibition at 5 µg/disc [6]: 23 mm | zone of inhibition at 5 µg/disc [7]: 23 mm

CC1(C)c2nnsc2C(c2ccccc2)NC1c1ccccc1 (stereo not drawn)
zone of inhibition at 100 ppm [8]: 12 mm | inhibition zone (IZ) [9]: inactive | zone of inhibition at 500 ppm [10]: 12 mm | inhibition zone (IZ) [11]: inactive | zone of inhibition at 100 ppm [12]: 12 mm | zone of inhibition at 500 ppm [13]: 22 mm | zone of inhibition at 200 ppm [14]: 12 mm | zone of inhibition at 200 ppm [15]: 12 mm | zone of inhibition at 500 ppm [16]: 17 mm | zone of inhibition at 500 ppm [17]: 22 mm | zone of inhibition at 200 ppm [18]: 12 mm | inhibition zone (IZ) [19]: inactive | zone of inhibition at 200 ppm [20]: 12 mm | zone of inhibition at 500 ppm [21]: 17 mm | zone of inhibition at 200 ppm [22]: 17 mm | zone of inhibition at 100 ppm [23]: 12 mm | zone of inhibition at 500 ppm [24]: 17 mm | zone of inhibition at 200 ppm [25]: 17 mm | zone of inhibition at 200 ppm [26]: 12 mm | inhibition zone (IZ) [27]: inactive | zone of inhibition at 200 ppm [28]: 17 mm | zone of inhibition at 500 ppm [29]: 12 mm | zone of inhibition at 200 ppm [30]: 12 mm | zone of inhibition at 500 ppm [31]: 17 mm | zone of inhibition at 100 ppm [32]: 12 mm | zone of inhibition at 200 ppm [33]: 12 mm | zone of inhibition at 200 ppm [34]: 17 mm | zone of inhibition at 500 ppm [35]: 12 mm | zone of inhibition at 200 ppm [36]: 12 mm | zone of inhibition at 500 ppm [37]: 30 mm | zone of inhibition at 100 ppm [38]: 12 mm | zone of inhibition at 100 ppm [39]: 12 mm | zone of inhibition at 500 ppm [40]: 22 mm | inhibition zone (IZ) [41]: inactive | zone of inhibition at 100 ppm [42]: 12 mm | zone of inhibition at 500 ppm [43]: 17 mm
